# pIC50: −log10 of the molar value. Counter-ions that a name gives are not always drawn. Like-named read-outs stand apart in the source and are kept apart here.
# Assays:
# [1] = test system: PC-9 (EGFR del19/T790M/C797S); conditions: J. Med. Chem. 2019, 62, 22, 10272-10293; cited from earlier work
# [2] = target: T1, EGFR (L858R/T790M/C797S) (Homo sapiens, UniProt P00533, C797S/L858R/T790M); assay: Kinase inhibitory activity, 33P-ATP filtration-binding (Reaction Biology Corp.); assay type: biochemical; conditions: read-out: Kinase half-maximal inhibition concentration IC50 EGFR(L858R/T790M/C797S)
# T1 construct: Reaction Biology Corp. (assay performed there)
# T1 sequence (P00533 25-1210 T790M/C797S/L858R): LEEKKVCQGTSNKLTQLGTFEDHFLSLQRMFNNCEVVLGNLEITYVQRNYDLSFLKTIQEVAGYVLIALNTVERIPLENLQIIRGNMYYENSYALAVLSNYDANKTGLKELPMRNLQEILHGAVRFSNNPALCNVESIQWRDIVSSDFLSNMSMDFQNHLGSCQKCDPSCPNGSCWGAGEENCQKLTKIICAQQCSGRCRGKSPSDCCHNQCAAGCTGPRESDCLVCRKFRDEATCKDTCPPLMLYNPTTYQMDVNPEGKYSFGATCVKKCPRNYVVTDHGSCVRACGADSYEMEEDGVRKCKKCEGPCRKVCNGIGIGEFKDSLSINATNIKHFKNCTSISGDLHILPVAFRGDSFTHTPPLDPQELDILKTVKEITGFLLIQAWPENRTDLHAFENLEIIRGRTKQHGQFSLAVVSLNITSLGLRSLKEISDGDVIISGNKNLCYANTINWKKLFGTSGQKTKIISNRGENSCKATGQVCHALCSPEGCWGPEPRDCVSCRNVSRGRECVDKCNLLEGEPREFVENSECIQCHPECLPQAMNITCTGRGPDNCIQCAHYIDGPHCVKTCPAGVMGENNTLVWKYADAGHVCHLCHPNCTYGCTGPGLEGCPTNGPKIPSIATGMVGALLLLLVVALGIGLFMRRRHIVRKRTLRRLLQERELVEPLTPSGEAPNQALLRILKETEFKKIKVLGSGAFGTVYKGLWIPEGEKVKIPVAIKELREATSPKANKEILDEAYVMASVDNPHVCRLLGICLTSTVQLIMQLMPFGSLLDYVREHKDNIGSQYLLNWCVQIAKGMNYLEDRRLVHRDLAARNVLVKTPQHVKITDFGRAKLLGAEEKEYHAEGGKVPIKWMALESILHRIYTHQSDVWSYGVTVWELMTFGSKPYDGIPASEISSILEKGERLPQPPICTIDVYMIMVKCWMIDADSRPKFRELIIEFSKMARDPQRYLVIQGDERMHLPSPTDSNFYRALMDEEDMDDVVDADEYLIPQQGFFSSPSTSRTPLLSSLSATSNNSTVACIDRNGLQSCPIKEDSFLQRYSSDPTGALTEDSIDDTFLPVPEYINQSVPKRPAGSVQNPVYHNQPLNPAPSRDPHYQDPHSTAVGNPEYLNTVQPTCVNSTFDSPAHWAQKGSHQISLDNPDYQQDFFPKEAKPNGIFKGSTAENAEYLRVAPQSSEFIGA
# Experimental: Compound assay for kinase inhibitory activity against EGFR (L858R/T790M/C797S), EGFR (del19-E746-A750/T790M/C797S), and EGFR (WT) was done at Reaction Biology Corp. In reaction buffer (20 mM Hepes (pH 7.5), 10 mM magnesium chloride (MgCl2), 1 mM ethylenebis(oxyethylenenitrilo)tetraacetic acid (EGTA), 0.02% polyethylene glycol monododecyl ether (Brij35), 0.02 mg/ml BSA, 0.1 mM sodium vanadate (Na3VO4), 2 mM dithiothreitol (DTT), 1% DMSO), a certain concentration of substances, coenzyme factors, kinases and test compounds (10 doses, 3-fold serial dilutions, 2% DMSO final concentration) were added in sequence, and mixed well. The mixture was incubated at room temperature for 20 minutes. A certain concentration of ^33P-ATP was added to the reaction mixture to initiate reaction, followed by incubation at room temperature for 120 minutes. Finally, the radioactivity of the reactants was detected by filtration-binding method. The final kinase activity was expressed as the ratio of the remaining kinase activity of the test sample to the kinase activity of the DMSO control group. The dose-response relationship curve was fitted and IC50 was calculated using GraphPad software.
# [3] = target: Ba/F3-FL-EGFR (L858R/T790M/C797S) (Homo sapiens, UniProt P00533, T790M/C797S/L858R, cells depend on it); assay: Cell proliferation inhibition, CellTiter-Glo; assay type: cell-based; conditions: 72 hours, read-out: Cell half-maximal inhibition concentration IC50 Ba/F3-FL-EGFR (L858R/T790M/C797S)
# Ba/F3-FL-EGFR (L858R/T790M/C797S), sequence (P00533 whole entry T790M/C797S/L858R): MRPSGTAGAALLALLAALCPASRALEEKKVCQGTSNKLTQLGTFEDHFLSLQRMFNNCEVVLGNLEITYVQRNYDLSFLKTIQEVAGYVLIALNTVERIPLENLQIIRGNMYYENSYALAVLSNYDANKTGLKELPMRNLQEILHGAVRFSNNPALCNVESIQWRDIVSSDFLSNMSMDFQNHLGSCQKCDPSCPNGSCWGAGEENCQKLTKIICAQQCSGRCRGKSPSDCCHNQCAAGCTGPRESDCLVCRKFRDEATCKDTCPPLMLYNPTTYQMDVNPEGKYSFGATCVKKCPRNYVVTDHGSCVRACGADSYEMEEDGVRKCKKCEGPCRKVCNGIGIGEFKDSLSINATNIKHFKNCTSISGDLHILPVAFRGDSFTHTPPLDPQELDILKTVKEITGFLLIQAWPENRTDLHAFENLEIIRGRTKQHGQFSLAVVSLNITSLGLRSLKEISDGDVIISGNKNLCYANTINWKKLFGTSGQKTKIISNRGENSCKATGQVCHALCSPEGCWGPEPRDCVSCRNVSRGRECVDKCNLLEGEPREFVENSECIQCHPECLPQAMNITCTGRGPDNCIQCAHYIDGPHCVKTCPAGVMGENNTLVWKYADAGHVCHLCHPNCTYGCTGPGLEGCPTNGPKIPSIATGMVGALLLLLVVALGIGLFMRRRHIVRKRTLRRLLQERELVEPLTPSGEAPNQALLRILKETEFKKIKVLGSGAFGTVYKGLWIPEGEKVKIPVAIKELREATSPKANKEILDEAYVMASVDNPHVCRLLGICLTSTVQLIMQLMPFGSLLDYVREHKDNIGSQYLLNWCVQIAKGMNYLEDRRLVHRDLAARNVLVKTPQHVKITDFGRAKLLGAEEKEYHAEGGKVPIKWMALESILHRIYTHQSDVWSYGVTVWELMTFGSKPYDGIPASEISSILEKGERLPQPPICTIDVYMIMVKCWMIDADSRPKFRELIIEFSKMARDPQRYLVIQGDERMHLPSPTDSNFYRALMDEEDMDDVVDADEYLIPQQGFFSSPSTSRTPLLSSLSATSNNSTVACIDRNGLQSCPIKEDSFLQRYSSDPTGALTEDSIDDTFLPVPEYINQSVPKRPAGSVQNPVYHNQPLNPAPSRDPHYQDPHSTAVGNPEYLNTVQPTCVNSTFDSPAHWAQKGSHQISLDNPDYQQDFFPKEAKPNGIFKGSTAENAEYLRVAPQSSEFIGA
# Experimental: (§1) AdenosineTri-Phosphate (ATP) is an energy carrier shared by various life activities in nature, and is the smallest unit of energy storage and transfer. The CellTiter-Glo™ living cell assay kit uses luciferase as a detector, and luciferase requires the participation of ATP in the process of luminescence. CellTiter-Glo™ reagent is added to a cell culture medium, and the luminescence value is measured. The light signal is directly proportional to the amount of ATP in the system, and ATP is positively correlated with the number of living cells. Therefore, cell proliferation can be detected by detecting ATP content with the CellTiter-Glo kit. In this assay, the cell lines were Ba/F3-FL-EGFR (L858R/T790M/C797S), Ba/F3-FL-EGFR (WT), Ba/F3-FL-EGFR (L858R), Ba/F3-FL-EGFR (del19-S752-I759), Ba/F3-FL-EGFR (del19-E746-A750/T790M/C797S), Ba/F3-FL-EGFR (L858R/T790M), Ba/F3-FL-EGFR (del19-E746-A750/T790M), Ba/F3-TEL-EGFR (L858R/C797S), Ba/F3-FL-EGFR (del19-E746-A750/C797S) stably transfected cell lines.
# (§2) The cell lines were cultured in an incubator at 37° C. and 5% CO2. The cells were periodically passaged, and cells in logarithmic growth phase were taken for plating.
# (§3) a) DMSO was used to prepare a 10 mM solution of the compound to be tested, and then the compound to be tested was diluted to 0.3 or 1 mM with DMSO.
# (§4) b) Preparation of 1000× compound storage plate (tube): DMSO was used to dilute by 3-fold gradient from the highest concentration to the lowest concentration, with a total of 9 concentrations.
# (§5) c) Preparation of 20× compound working solution: 49 μL of cell culture medium was added to a flat-bottomed 96-well transparent drug plate, and 1 μL of compound was pipetted from the 1000× compound storage plate to the cell culture medium of the 96-well transparent drug plate. 1 μL of DMSO was added to the vehicle control. After adding compound or DMSO, the well content was mixed to uniform by aspiration and expelling with pipette.
# (§6) a) Cells were stained with trypan blue and viable cells were counted. The cell viability rate was required to be above 90%.
# (§7) b) 95 μL of cell suspension (2000 cells/well) was added to each well of the compound detection cell plate, and culture medium without cells (containing 0.1% DMSO) was added to the Min control well.
# (§8) c) Dosing in the compound detection cell plate: 5 μL of 20× compound working solution was added to the cell culture plate. 5 μL of DMSO-cell culture mixture was added to the Max control. The final concentration of DMSO was 0.1%.
# (§9) d) The culture plate was incubated in an incubator at 37° C., 5% CO2 for 72 hours.
# (§10) Cell proliferation inhibition rate (Inhibition Rate) data were processed using the following formula:
# Inhibition Rate (Inh %)=100−(RLUDrug−RLUMin)/(RLUMax−RLUMin)*100%.
# The inhibition rates corresponding to different concentrations of compounds were calculated, and then GraphPad Prism software was used to draw the inhibition rate curve and the IC50 value was calculated.
# [4] = target: Ba/F3-FL-EGFR (del19-S752-I759) (Homo sapiens, UniProt P00533, DEL752-759, cells depend on it); assay: Cell proliferation inhibition, CellTiter-Glo; assay type: cell-based; conditions: 72 hours, read-out: Cell half-maximal inhibition concentration IC50 Ba/F3-FL-EGFR (del19-S752-I759)
# Experimental: as §1, §2, §3, §4, §5, §6, §7, §8, §9
# (§11) The following steps were performed according to the instruction of Promega CellTiter-Glo luminescence cell viability detection kit (Promega-G7573). • a) The CellTiter-Glo buffer was thawed and allowed to stand to reach room temperature; • b) CellTiter-Glo substrate was allowed to stand to reach room temperature; • c) CellTiter-Glo buffer was added to CellTiter-Glo substrate in a bottle to dissolve the substrate to formulate CellTiter-Glo working solution; • d) The working solution was vortexed slowly for fully dissolution; • e) The cell culture plates were taken out and allowed to stand for 10 minutes to equilibrate to room temperature; • f) 50 μL (equal to half the volume of cell culture solution in each well) of Cell Titer-Glo working solution was added into each well. • g) The culture plates were shaken on an orbital shaker for 2 minutes to induce cell lysis; • h) The culture plates were left at room temperature for 10 minutes to stabilize the luminescence signal; • i) The luminous signal was detected on the PerkinElmer EnVision®2105 plate reader.
# (§12) By PerkinElmer EnVision®2105 reading, the corresponding […] value RLU for each well was yielded.
# as §10
# (§13) Inhibition Rate (Inh %)=100−(RLUDrug−RLUMin)/(RLUMax−RLUMin)*100%. […]
# [5] = target: Ba/F3-FL-EGFR (L858R) (Homo sapiens, UniProt P00533, L858R, cells depend on it); assay: Cell proliferation inhibition, CellTiter-Glo; assay type: cell-based; conditions: 72 hours, read-out: Cell half-maximal inhibition concentration IC50 Ba/F3-FL-EGFR (L858R)
# Ba/F3-FL-EGFR (L858R), sequence (P00533 whole entry L858R): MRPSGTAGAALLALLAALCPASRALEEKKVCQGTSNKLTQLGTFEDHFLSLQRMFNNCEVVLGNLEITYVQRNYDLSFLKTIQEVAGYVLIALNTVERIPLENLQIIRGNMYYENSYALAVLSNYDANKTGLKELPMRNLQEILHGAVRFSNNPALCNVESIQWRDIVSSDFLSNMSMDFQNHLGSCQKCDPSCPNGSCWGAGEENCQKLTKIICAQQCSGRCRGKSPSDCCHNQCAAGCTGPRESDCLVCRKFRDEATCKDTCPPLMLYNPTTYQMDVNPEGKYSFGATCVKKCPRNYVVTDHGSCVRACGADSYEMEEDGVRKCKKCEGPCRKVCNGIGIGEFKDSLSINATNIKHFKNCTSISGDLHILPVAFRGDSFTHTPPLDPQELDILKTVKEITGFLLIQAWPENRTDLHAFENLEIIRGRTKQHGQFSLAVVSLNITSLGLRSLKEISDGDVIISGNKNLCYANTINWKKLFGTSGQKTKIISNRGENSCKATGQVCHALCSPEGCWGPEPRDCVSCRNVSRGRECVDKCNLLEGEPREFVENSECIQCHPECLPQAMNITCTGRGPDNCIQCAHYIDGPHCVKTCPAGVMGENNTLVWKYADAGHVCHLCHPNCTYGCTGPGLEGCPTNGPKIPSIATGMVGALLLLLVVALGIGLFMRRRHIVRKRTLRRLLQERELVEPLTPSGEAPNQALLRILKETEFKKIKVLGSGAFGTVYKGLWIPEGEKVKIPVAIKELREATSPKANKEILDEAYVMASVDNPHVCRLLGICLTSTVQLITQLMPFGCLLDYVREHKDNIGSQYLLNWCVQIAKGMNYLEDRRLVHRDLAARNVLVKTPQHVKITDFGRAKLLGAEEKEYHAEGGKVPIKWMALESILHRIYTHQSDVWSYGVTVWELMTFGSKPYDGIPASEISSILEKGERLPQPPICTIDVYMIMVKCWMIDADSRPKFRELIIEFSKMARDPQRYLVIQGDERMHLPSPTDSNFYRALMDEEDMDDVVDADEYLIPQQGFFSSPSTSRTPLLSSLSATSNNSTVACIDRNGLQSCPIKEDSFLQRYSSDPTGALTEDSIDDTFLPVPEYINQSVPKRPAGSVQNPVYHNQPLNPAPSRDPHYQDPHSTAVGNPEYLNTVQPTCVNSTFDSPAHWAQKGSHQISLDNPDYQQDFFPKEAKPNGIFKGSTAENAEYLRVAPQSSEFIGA
# Experimental: as §1, §2, §3, §4, §5, §6, §7, §8, §9, §11, §12, §10, §13
# [6] = target: Ba/F3-FL-EGFR (WT) (Homo sapiens, UniProt P00533); assay: Cell proliferation inhibition, CellTiter-Glo; assay type: cell-based; conditions: 72 hours, read-out: Cell half-maximal inhibition concentration IC50 Ba/F3-FL-EGFR (WT)
# Ba/F3-FL-EGFR (WT), sequence (P00533 whole entry, change not shown): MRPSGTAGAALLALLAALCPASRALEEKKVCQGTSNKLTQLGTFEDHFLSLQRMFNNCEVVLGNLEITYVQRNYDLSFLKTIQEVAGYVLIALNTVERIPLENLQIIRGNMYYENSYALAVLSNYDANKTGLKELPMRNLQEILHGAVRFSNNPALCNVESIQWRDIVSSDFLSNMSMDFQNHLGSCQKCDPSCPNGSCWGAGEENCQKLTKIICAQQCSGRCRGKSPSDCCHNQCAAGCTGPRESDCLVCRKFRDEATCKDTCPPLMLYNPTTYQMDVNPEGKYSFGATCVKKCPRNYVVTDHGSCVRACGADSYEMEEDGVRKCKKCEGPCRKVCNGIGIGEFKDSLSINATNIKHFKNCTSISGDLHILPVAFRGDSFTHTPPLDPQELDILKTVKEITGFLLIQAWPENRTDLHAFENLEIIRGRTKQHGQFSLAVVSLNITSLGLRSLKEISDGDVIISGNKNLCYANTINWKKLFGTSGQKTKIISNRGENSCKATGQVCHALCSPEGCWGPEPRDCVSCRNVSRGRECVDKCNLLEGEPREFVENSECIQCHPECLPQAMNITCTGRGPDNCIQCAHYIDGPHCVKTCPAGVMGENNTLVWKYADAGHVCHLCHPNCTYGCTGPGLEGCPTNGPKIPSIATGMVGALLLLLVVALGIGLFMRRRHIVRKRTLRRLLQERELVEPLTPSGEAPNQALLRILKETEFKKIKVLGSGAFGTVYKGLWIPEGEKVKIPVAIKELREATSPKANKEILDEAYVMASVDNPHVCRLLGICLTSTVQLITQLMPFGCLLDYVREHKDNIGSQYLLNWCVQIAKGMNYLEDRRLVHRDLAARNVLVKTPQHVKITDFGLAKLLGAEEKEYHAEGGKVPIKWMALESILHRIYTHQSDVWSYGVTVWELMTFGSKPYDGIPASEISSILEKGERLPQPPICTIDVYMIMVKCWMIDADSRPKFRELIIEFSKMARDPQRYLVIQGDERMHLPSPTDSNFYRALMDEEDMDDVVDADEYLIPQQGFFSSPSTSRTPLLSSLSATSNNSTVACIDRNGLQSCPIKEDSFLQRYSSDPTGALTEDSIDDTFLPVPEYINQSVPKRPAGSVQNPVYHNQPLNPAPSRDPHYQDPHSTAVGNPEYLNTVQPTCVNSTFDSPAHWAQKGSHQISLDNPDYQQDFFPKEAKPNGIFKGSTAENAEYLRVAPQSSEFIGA
# Experimental: as §1, §2, §3, §4, §5, §6, §7, §8, §9, §11, §12, §10, §13
# [7] = target: Ba/F3-FL-EGFR (del19-E746-A750/T790M/C797S) (Homo sapiens, UniProt P00533, DEL746-750/T790M/C797S, cells depend on it); assay: Cell proliferation inhibition, CellTiter-Glo; assay type: cell-based; conditions: 72 hours, read-out: Cell half-maximal inhibition concentration IC50 Ba/F3-FL-EGFR (del19-E746-A750/T790M/C797S)
# Experimental: as §1, §2, §3, §4, §5, §6, §7, §8, §9, §11, §12, §10, §13
smiles,measurement,setting,value
Cc1cc2cc(n1)-c1cnn(C)c1OCCC[C@@H](C)Cn1c(nc3ccc(CN4CCN(C)CC4)cc31)NC2=O [BI-4020],Anti-tumor efficacy,[1],good anti-tumor efficacy
Cc1cc2cc(n1)-c1cnn(C)c1OCCC[C@@H](C)CN1/C(=N/C2=O)Nc2ccc(P(C)(C)=O)cc21 [WX-001 (trifluoroacetate)],pIC50,[2]; ATP 10 μM,9.80
same,pIC50,[2]; ATP 100 μM,8.93
CCS(=O)(=O)c1ccc2c(c1)N1C[C@H](C)CCCOc3c(cnn3C)-c3cc(cc(C)n3)C(=O)/N=C/1N2 [WX-002 (formate)],pIC50,[2]; ATP 10 μM,9.33
CCP(=O)(CC)c1ccc2c(c1)N1C[C@H](C)CCCOc3c(cnn3C)-c3cc(cc(C)n3)C(=O)/N=C/1N2 [WX-004 (trifluoroacetate)],pIC50,[2]; ATP 100 μM,8.76
Cc1cc2cc(n1)-c1cnn(C)c1OCCC[C@@H](C)CN1/C(=N/C2=O)Nc2ccc(P(=O)(C(C)C)C(C)C)cc21 [WX-005 (trifluoroacetate)],pIC50,[2]; ATP 100 μM,8.79
same,GI50,[3],7.2 nM
Cc1cc2cc(n1)-c1cnn(C)c1OCCC[C@@H](C)CN1/C(=N/C2=O)Nc2ccc(N=S(C)(C)=O)cc21 [WX-006 (trifluoroacetate)],pIC50,[2]; ATP 100 μM,9.08
same,GI50,[3],2.3 nM
Cc1cc2cc(n1)-c1cnn(C)c1OCCC[C@@H](C)CN1/C(=N/C2=O)Nc2ccc(N=S3(=O)CCCCC3)cc21 [WX-011],GI50,[3],4.4 nM
CCS(=O)(CC)=Nc1ccc2c(c1)N1C[C@H](C)CCCOc3c(cnn3C)-c3cc(cc(C)n3)C(=O)/N=C/1N2 [WX-012 (hydrochloride)],GI50,[3],7.3 nM
Cc1cc2cc(n1)-c1cnn(C)c1OCCC[C@@H](C)CN1/C(=N/C2=O)Nc2ccc(N=S3(=O)CCNCC3)cc21 [WX-014],GI50,[3],14.3 nM
same,GI50,[4],38.1 nM
same,GI50,[5],53.9 nM
same,GI50,[6],421 nM
same,GI50,[7],2.9 nM
Cc1cc2cc(n1)-c1cnn(C)c1OCCC[C@@H](C)CN1/C(=N/C2=O)Nc2ccc(N=S3(=O)CCN(C)CC3)cc21 [WX-015],GI50,[3],10.6 nM
Cc1cc2cc(n1)-c1cnn(C)c1OCCC[C@@H](C)CN1/C(=N/C2=O)Nc2ccc(N=S3(=O)CCN(C4CCN(C)CC4)CC3)cc21 [WX-022],GI50,[3],12.7 nM
Cc1cc2cc(n1)-c1cnn(C)c1OCCC[C@@H](C)CN1/C(=N/C2=O)Nc2ccc(N=S3(=O)CCC4(CCN(C)CC4)CC3)cc21 [WX-023],GI50,[3],2.7 nM
Cc1cc2cc(n1)-c1cnn(C)c1OCCC[C@@H](C)CN1/C(=N/C2=O)Nc2ccc(N=S3(=O)CC4CN(C)CC4C3)cc21 (some centres unmarked) [WX-024],GI50,[3],1.4 nM
Cc1cc2cc(n1)-c1cnn(C)c1OCCC[C@@H](C)CN1/C(=N/C2=O)Nc2ccc(N=S3(=O)CC4(COC4)C3)cc21 [WX-025],GI50,[3],5.7 nM
Cc1cc2cc(n1)-c1cnn(C)c1OCCC[C@@H](C)CN1/C(=N/C2=O)Nc2ccc(N=S3(=O)CCC(N4CCN(C)CC4)CC3)cc21 (some centres unmarked) [WX-026],GI50,[3],11.6 nM
Cc1cc2cc(n1)-c1cnn(C)c1OCCC[C@@H](C)CN1/C(=N/C2=O)Nc2ccc(N=S3(=O)CCC4(CCOCC4)CC3)cc21 [WX-028],GI50,[3],3.3 nM
Cc1cc2cc(n1)-c1cnn(C)c1OCCC[C@@H](C)CN1/C(=N/C2=O)Nc2ccc(N=S3(=O)CCC4(CC3)COC4)cc21 [WX-029],GI50,[3],5.5 nM
Cc1cc2cc(n1)-c1cnn(C)c1OCCC[C@@H](C)CN1/C(=N/C2=O)Nc2ccc(N=S3(=O)CCN(C4COC4)CC3)cc21 [WX-030],GI50,[3],13 nM
Cc1cc2cc(n1)-c1cnn(C)c1OCCC[C@@H](C)CN1/C(=N/C2=O)Nc2ccc(N=S3(=O)CCC4(CC3)CN(C)C4)cc21 [WX-031],GI50,[3],2.1 nM

# Reference: patent publication US20250084097A1, “MACROCYCLIC AMIDE COMPOUNDS AND APPLICATION THEREOF” (Medshine Discovery Inc., priority 2021, published 2025)
